This is an account of results in ChEMBL document CHEMBL5465560, “Selectivity Literature for EUbOPEN Chemogenomic Library” (2024).

Assay [1] concerns the target Serine/threonine-protein kinase 16 (Homo sapiens, UniProt O75716). Nature of the assay: Selectivity interaction (ProQinase) EUB0000171b STK16.
The target of assay [2] is Serine/threonine-protein kinase Nek6 (Homo sapiens) (UniProt Q9HC98). Nature of the assay: Selectivity interaction (KinomeScan (DiscoverX)) EUB0000092b NEK6. The note with it: at 10 µM.
In assay [3] the target is BDNF/NT-3 growth factors receptor (Homo sapiens) (UniProt Q16620). Nature of the assay: Selectivity interaction (KinomeScan (DiscoverX)) EUB0000695a NTRK2. As to conditions: at 100 nM.
Assay [4] concerns the target T1, Mitogen-activated protein kinase kinase kinase 5 (Homo sapiens) (UniProt Q99683).
T1 sequence (whole entry): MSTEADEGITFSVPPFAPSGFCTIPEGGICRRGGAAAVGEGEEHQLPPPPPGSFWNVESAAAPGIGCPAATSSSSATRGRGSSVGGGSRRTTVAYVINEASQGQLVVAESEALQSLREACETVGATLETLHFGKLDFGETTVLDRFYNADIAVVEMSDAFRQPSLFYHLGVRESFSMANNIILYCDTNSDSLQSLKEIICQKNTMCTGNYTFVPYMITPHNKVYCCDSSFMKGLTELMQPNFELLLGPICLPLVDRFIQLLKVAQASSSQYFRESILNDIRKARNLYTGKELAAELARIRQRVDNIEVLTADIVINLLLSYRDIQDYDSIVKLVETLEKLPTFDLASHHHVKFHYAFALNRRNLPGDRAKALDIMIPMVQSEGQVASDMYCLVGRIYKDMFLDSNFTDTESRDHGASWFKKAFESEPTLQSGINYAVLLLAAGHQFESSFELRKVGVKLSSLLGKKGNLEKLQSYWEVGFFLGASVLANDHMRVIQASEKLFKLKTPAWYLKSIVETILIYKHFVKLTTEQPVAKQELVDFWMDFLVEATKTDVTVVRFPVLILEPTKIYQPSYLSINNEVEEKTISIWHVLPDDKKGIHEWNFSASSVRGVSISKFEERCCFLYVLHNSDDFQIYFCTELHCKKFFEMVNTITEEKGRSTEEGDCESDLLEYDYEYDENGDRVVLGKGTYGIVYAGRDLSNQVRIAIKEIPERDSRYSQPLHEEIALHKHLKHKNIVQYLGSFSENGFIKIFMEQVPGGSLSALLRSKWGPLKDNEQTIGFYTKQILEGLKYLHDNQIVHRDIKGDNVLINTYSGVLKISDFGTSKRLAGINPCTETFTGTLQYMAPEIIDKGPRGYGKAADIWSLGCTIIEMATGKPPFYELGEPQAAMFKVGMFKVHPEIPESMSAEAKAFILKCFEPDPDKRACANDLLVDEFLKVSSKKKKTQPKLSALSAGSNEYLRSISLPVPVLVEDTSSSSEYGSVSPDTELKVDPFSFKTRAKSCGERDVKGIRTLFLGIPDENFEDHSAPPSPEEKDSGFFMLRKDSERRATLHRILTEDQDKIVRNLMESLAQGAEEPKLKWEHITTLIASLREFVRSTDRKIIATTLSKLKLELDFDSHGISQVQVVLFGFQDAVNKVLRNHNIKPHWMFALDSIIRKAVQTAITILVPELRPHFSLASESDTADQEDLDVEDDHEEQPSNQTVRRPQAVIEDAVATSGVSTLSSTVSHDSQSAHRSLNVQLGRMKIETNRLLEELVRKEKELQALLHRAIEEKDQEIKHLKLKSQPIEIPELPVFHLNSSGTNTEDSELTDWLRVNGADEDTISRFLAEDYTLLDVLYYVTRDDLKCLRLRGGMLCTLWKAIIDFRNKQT
The assay is described as follows: Selectivity interaction (LanthaScreen Eu Kinase Binding Assay) EUB0001632a MAP3K5. The note with it: at 10 µM. For orientation: TR-FRET usually uses a lanthanide donor and a delayed reading to cut background.

Assay [5] concerns the target Mitogen-activated protein kinase 9 (Homo sapiens, UniProt P45984). Nature of the assay: Selectivity interaction (ActivX KiNativ screen (kinase selectivity in THP-1 cell lysates)) EUB0000639a MAPK9. Type of assay: subcellular. As to conditions: lysate, at 0.2 µM.
For assay [6], the target named is Ribosomal protein S6 kinase alpha-3 (Homo sapiens, UniProt P51812). The assay is described as follows: Selectivity interaction (ActivX KiNativ screen (kinase selectivity in THP-1 cell lysates)) EUB0000639a RPS6KA3. The format is subcellular. The note with it: lysate, at 5 µM.
In assay [7] the target is T2, Interleukin-1 receptor-associated kinase 4 (Homo sapiens) (UniProt Q9NWZ3).
T2 sequence (whole entry): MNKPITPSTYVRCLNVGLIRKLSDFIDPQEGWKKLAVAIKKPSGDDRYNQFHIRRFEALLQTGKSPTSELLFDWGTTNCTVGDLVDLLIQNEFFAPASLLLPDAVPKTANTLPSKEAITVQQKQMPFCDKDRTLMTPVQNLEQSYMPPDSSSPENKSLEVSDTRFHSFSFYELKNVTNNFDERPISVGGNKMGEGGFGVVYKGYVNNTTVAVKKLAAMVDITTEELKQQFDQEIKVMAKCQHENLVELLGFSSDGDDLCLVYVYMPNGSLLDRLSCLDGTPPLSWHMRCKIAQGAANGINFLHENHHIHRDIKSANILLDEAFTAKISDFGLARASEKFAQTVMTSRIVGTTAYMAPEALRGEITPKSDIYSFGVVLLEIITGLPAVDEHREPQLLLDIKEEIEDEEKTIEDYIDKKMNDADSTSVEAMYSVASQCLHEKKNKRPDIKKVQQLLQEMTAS
Nature of the assay: Selectivity interaction (KinomeScan (DiscoverX)) EUB0000595a IRAK4. The note with it: at 10 µM.

Serine/threonine-protein kinase 16, sequence (O75716 whole entry): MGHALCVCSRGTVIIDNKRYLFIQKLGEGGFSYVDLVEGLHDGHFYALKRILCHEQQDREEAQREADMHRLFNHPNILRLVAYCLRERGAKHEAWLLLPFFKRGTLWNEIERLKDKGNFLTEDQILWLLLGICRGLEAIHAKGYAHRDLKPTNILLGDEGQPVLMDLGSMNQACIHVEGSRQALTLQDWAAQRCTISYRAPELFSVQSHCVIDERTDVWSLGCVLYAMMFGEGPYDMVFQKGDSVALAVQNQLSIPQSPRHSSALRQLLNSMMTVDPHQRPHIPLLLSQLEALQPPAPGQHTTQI
BDNF/NT-3 growth factors receptor (Homo sapiens), sequence (Q16620 32-822 limits assumed): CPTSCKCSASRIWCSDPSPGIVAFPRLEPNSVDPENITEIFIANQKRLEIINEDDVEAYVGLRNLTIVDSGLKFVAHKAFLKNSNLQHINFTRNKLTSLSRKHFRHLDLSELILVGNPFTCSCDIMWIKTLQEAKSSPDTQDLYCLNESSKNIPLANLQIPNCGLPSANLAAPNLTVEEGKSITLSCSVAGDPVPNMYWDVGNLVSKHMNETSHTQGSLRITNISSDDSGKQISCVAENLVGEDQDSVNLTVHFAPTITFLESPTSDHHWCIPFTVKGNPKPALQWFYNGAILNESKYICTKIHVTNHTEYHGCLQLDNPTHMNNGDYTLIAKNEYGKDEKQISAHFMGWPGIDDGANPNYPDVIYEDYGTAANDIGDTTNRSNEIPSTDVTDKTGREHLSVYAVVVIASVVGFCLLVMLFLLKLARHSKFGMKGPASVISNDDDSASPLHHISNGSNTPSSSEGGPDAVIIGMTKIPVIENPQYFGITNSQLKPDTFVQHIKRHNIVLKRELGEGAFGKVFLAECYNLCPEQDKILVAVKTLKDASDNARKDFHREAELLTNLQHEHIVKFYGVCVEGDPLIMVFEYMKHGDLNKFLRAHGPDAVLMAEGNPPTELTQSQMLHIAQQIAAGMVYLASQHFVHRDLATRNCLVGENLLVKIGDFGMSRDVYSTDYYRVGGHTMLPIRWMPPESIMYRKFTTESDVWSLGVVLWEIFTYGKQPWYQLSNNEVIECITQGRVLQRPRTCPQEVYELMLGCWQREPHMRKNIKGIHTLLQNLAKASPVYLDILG
Mitogen-activated protein kinase 9, sequence (P45984 whole entry, looked up): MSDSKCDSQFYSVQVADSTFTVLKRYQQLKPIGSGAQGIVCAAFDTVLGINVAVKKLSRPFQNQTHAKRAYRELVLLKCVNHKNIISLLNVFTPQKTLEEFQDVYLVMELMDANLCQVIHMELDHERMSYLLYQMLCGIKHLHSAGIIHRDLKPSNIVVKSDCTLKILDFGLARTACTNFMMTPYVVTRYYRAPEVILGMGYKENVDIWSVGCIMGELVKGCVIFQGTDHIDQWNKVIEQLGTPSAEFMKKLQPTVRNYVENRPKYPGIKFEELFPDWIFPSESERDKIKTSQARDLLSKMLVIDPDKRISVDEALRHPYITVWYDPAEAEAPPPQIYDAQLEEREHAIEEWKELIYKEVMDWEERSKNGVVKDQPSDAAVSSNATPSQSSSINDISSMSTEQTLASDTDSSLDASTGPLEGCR
Ribosomal protein S6 kinase alpha-3, sequence (P51812 whole entry): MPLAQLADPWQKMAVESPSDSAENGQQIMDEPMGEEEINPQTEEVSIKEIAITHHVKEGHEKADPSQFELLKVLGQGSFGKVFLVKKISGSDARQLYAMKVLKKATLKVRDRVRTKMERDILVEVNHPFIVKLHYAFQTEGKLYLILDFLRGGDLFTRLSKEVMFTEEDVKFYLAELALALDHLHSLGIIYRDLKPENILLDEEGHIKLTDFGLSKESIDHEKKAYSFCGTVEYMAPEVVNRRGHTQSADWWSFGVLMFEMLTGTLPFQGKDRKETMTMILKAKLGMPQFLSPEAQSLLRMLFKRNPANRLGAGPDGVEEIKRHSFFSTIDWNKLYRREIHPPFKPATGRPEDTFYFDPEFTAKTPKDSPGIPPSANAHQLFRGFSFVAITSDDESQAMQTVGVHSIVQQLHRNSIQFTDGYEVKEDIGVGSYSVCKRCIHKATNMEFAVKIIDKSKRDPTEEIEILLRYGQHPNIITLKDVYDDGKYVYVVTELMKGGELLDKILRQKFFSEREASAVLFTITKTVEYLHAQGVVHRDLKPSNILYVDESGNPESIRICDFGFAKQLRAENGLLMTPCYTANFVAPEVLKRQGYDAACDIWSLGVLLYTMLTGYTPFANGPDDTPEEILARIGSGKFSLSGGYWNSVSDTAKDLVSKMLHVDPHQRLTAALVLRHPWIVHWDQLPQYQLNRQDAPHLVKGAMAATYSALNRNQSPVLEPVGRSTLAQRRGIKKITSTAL
Serine/threonine-protein kinase Nek6 (Homo sapiens), sequence (Q9HC98 whole entry): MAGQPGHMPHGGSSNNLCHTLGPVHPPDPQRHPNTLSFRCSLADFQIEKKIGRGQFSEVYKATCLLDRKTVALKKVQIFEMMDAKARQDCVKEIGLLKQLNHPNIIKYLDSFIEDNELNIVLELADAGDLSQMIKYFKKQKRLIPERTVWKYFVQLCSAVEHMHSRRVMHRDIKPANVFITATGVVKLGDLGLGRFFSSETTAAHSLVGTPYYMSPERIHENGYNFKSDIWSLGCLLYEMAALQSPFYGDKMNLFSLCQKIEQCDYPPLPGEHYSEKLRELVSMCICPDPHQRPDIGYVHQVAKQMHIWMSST

`C=CC(=O)Nc1cccc(C(=O)Nc2ccc(Nc3cc(-c4[nH]c(SC)nc4C)ccn3)cc2)c1`: the % of control in assay [1] (at 1 µM) was found to be 23%; in assay [1] (at 5 µM), 6%.

In assay [2], `CCC(=O)N1CCN(c2ccc(-n3c(=O)ccc4cnc5ccc(-c6cnc7ccccc7c6)cc5c43)cc2C(F)(F)F)CC1` came in with a % of control of 99%.

In the case of `Cc1cc(F)c(C(=O)Nc2cccc(-c3nncn3C(C)C)n2)cc1-n1cnc(C2CC2)c1`, the % of control in assay [3] turned out to be 65%.

Take `Cn1cc(-n2cnc3c(NCc4nc5cc(Cl)c(Cl)cc5[nH]4)nc(N4CCOCC4)nc32)cn1`: the % of inhibition in assay [4] was -14.2%.

For `CC[C@@H]1[C@H](F)C(=O)N[C@@H]1COc1nccc2cc(C(N)=O)c(OC)cc12` [ZIMLOVISERTIB], the results for the % of inhibition in assay [5] and in assay [6] were -0.3% and 1.6%, respectively.

Regarding `COCC(=O)NC/C=C/c1ccc2ncnc(Nc3ccc(Oc4ccc(C)nc4)c(C)c3)c2c1` [CP-724714], the % of control in assay [7] came to 100%.
